Measured values: paper PMC9919139, “Sustainable Synthesis, Antiproliferative and Acetylcholinesterase Inhibition of 1,4- and 1,2-Naphthoquinone Derivatives” (Molecules, 2023)
Like-named read-outs stand apart in the source and are kept apart here.

Legend:
[1] = Cyclic voltammetry in acetonitrile; format: physicochemical; conditions: for Ipa/Ipc: Tables S1/S2, acetonitrile; for Epa. Epc: Tables S1/S2, peak separation; for ∆E (I) / E1/2 (I) / Epc (I): first reduction wave; for ∆E (I) / E1/2 (I) / Epc (I) / Epc (II) / ∆E (II) / E1/2 (II): scan rate 0.100 V·s−1; for Epc (II) / ∆E (II) / E1/2 (II): second reduction wave
Text: To obtain an insight into the electronic character of the studied naphthoquinone derivatives and to find out possible relationships with their potential biological activities, the electrochemical behavior of 1,4-NQ (1) and 1,2-NQ (2) and their 2-substituted-1,4-NQ (3a–f) and 4-substituted-1,2-NQ derivatives (4a–h), respectively, were studied by cyclic voltammetry (CV) in aprotic medium (CH3CN + TBAP, 0.1 mol.L^−^1) and the electrochemical selected data are listed in Table 3 (for complete electrochemical data, see Tables S1 and S2, supplementary material).
The redox potentials were measured by cyclic voltammetry using an EG&G Princeton Applied Research (PAR) Model 273A potentiostat/galvanostat monitored by a personal computer with the Electrochemistry PowerSuite v2.51 software from PAR. Cyclic voltammograms were obtained in 1 mM of compounds in anhydrous acetonitrile solutions containing tetrabutylammonium hexafluorophosphate (TBAPF6) 0.1 M as supporting electrolyte. A three-electrode configuration cell was used with a homemade platinum disk working electrode (1.0 mm diameter) probed by a Luggin capillary connected to a silver-wire pseudo-reference electrode and a platinum wire auxiliary electrode. The potentials were scanned from −1.8 to 1.8 V at a scan rate of 100 mV·s^−^1. All measurements were done at room temperature and the solutions were deaerated with nitrogen atmosphere before use. All the potentials reported were measured against the ferrocene/ferrocenium redox couple as internal standard and corrected to SCE (using the ferrocenium/ferrocene redox couple E1/2 = 0.40 V vs. SCE).

[2] = molecular target: acetylcholinesterase (AChE) (Homo sapiens, UniProt P22303); assay: AChE inhibition assay (Ellman's colorimetric method); format: biochemical; conditions: for IC50: concentration that inhibits 50% of the AChE activity, read-out: AChEIC50
Experimental: The inhibition of acetylcholinesterase (AChE) enzymatic activity was measured using the Ellman’s colorimetric method with some alterations. Briefly, 325 μL of 50 mM Tris–HCl buffer (pH 8), 100 μL of a compound’s solution with 1% DMSO, and 25 μL of AChE (0.1 U/mL) in 50 mM Tris–HCl buffer pH 8 were incubated for 15 min. Subsequently, 75 μL of acetylthiocholine iodide (AChI) (0.023 mg/mL) and 475 μL of 3 mM 5,5′-dithiobis(2-nitrobenzoic acid) (DTNB) in Tris–HCl buffer (pH 8) containing 0.05 M NaCl and 0.021 M MgCl2 were added to initiate the reaction. The initial rate of the enzymatic reaction was quantified by measuring the absorbance at 405 nm for 5 min (V[compound]). A control reaction was carried out using 1% DMSO water solution, instead of the compound’s solution, and this initial rate was considered 100% of the enzymatic activity, Vcontrol. The percentage of AChE inhibition (I) for various concentrations of the different compounds was determined as the ratio of V[compound] and Vcontrol. For each compound, both the AChEIC50 value (the concentration that inhibits 50% of the AChE activity) and the percentage of inhibition at the compound concentration of 50 µM (Inhibition50µM) were calculated by plotting I for each compound concentration. All the assays were carried out in triplicate.

[3] = MTT cytotoxicity assay against HepG2 cell line; format: cell-based, human; conditions: human, HepG2 cells, HepG2, 24 h incubation, mean ± SD, read-out: EC50 (cytotoxicity, concentration leading to the death of 50% of the cells)
Experimental: (§1) A hepatocellular carcinoma cell line HepG2, recognized for studying the metabolism of anticancer drugs, was used. The viability of HepG2 cell line culture after 24 h incubation with the compounds using the MTT (3-[4,5-dimethylthiazol-2-yl]-2,5-diphenyl tetrazolium bromide) assay was evaluated, and doxorubicin (Doxo) was used as a positive control.
(§2) HepG2 human hepatocyte carcinoma cell line was purchased from European Collection of Authenticated Cell Cultures (ECACC). HepG2 cells (ECACCC# 85011430) were cultured in Dulbecco’s Modified Eagle´s Medium (DMEM) supplemented with 10% fetal bovine serum, antibiotic-antimycotic (100 U/mL penicillin-streptomycin and 0.25 μg amphotericin B) and 2 mM L-glutamine at 37 °C in an atmosphere containing 5% CO2. The 3-(4,5-dimethylthiazol-2-yl)-2,5-diphenyltetrazolium bromide (MTT) method, described in Gaspar et al., [50] was used for assaying cell viability. Briefly, the cells were grown in the supplemented medium in 96-well microplates in an incubator with 5% CO2 at 37 °C, until reaching 100% confluence. After growth, the medium was replaced by the compounds’ solutions at different concentrations. The compounds were solubilized in supplemented medium containing 0.5% DMSO final concentration. Cells treated only with medium containing 0.5% DMSO served as a negative control. After 24 h incubation, the compound’s solutions were replaced by 100 µL of 0.5 mg/mL MTT solution in DMEM culture medium and incubated at 37 °C, 5% CO2 for 2–4 h. The formed formazan crystals were dissolved in 200 µL of methanol and the absorbance at 595 nm was registered against 630 nm (reference wavelength). For each concentration of the compounds, the percentage of growth inhibition/cytotoxicity was evaluated considering 100% of viability for the absorbance of the negative control. Dose-response curves for each compound were plotted using the Graph Pa Prim 4.0 software and the effective concentration leading to the death of 50% of the cells (EC50) was calculated. All experiments were replicated at least six times.

[4] = system: HepG2 human hepatocyte carcinoma cell line; assay: MTT cytotoxicity assay against HepG2 cell line; format: cell-based; conditions: HepG2, 24 h incubation, mean ± SD, read-out: EC50 (cytotoxicity, concentration leading to the death of 50% of the cells)
Experimental: as §1, §2

[5] = Tables S1/S2, every redox process listed, acetonitrile, vs SCE, 100 mV.s-1
[6] = read-out: Inhibiton50µM (μM±SD)

Sequence of acetylcholinesterase (AChE) (P22303 32-614): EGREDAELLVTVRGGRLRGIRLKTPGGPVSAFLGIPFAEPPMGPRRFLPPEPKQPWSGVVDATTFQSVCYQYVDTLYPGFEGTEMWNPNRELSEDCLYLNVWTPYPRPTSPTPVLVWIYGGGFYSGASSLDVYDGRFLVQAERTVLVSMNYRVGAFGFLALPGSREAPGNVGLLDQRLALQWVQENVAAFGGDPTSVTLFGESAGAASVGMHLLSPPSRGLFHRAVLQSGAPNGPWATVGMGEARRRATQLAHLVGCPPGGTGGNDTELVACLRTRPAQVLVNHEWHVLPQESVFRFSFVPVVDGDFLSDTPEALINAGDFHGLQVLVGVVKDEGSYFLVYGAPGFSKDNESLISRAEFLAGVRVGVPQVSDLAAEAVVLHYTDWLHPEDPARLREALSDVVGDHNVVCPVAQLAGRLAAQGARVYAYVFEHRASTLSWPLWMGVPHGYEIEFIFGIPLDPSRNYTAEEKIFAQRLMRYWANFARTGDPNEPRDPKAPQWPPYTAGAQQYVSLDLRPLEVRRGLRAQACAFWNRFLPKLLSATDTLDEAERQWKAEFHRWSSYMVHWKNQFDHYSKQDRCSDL

Compound | Ipa/Ipc ([1]; 100 mV.s-1) | E1/2 [1, 5] [V] | Epa [1, 5] [V] | Epa. Epc ([1]; acetonitrile, 100 mV.s-1) [mV] | ∆E (I) ([1]; acetonitrile) [mV] | E1/2 (I) ([1]; acetonitrile, vs SCE) [V] | Epc (I) ([1]; acetonitrile, vs SCE) [V] | inhibition at 50 µM [2, 6] [%] | EC50 at 24 h [3] [µM] | Epc [1, 5] [V] | IC50 [2] [µM] | Epc (II) ([1]; acetonitrile, vs SCE) [V] | ∆E (II) ([1]; acetonitrile) [mV] | E1/2 (II) ([1]; acetonitrile, vs SCE) [V] | inhibition at 50 µM ([2]; read-out: Inhibition50µM (AChE inhibition)) [%] | EC50 [4] [µM]
N#Cc1ccc(NC2=CC(=O)c3ccccc3C2=O)cc1 [Compound 3d, 2-(4-aminobenzonitrile)-1,4-naphthoquinone] | 1.0 | -0.70 | -0.66 | 80 | 80 | −0.70 | −0.74 | 25.8 ± 3 | 79.4 ± 1.4 |  |  |  |  |  |  | 
O=C1C=C(Nc2ccc(O)cc2)c2ccccc2C1=O [Compound 4b] |  |  |  |  |  |  | −0.61 | 74.1 ± 1.1 | 7.1 ± 1.8 | -0.61 | 30 |  |  |  |  | 
CCN(CC)C1=CC(=O)c2ccccc2C1=O [Compound 3f, 2-(diethylamine)-1,4-naphthoquinone] | 1.0 | -0.94 |  |  | 70 | −0.94 | −0.97 | 47.9 ± 2.5 | 64.7 ± 1.4 | -0.97 |  |  |  |  |  | 
Nc1ccc(NC2=CC(=O)c3ccccc3C2=O)cc1 [Compound 3a, 2-(1,4-Phenylenediamine)-1,4-naphthoquinone] | 0.9 | -0.82 |  | 80 | 80 | −0.82 | −0.86 | 23.4 ± 2.5 | 8.7 ± 1.3 |  |  | −1.42 |  |  |  | 
O=C1C=C(Nc2ccc(O)cc2)C(=O)c2ccccc21 [Compound 3b, 2-(4-aminophenol)-1,4-naphthoquinone] | 1.0 | -0.81 |  |  | 70 | −0.81 | −0.84 | 16.4 ± 2 | 21.4 ± 3.9 | -0.84 |  |  |  |  |  | 
COc1ccc(NC2=CC(=O)c3ccccc3C2=O)cc1 [Compound 3c, 2-(4-methoxyaniline)-1,4-naphthoquinone] | 1.0 |  |  | 120 | 70 | −0.82 | −0.86 | 25.9 ± 3 | 13 ± 1.8 |  |  | −1.34 |  |  |  | 
O=C1C=C(Nc2ccc(Nc3ccccc3)cc2)c2ccccc2C1=O [Compound 4g] |  |  |  |  |  |  | −0.63 | 75.3 ± 1.3 | 9.2 ± 2.3 |  |  | −1.43 |  |  |  | 
CCCCNC1=CC(=O)c2ccccc2C1=O [Compound 3e, 2-(butan-1-amine)-1,4-naphthoquinone] | 1.0 |  |  | 100 | 70 | −0.95 | −0.98 | 48.3 ± 1.6 | 35.8 ± 1.5 |  |  | −1.47 | 100 | −1.42 |  | 
O=C1C=C(Nc2ccccc2O)c2ccccc2C1=O [Compound 4h] |  |  |  |  |  |  | −0.57 | 85.3 ± 1.3 | 9.1 ± 3.3 |  | 16 | −0.98 |  |  | 85 | 
Nc1ccc(NC2=CC(=O)C(=O)c3ccccc32)cc1 [Compound 4a] |  |  |  |  |  |  | −0.67 | 51.7 ± 2.1 | 2.7 ± 1 | -0.67 |  |  |  |  |  | 3
N#Cc1ccc(NC2=CC(=O)C(=O)c3ccccc32)cc1 [Compound 4d] |  |  |  |  |  |  | −0.47 | 41.6 ± 2.4 | 26.8 ± 1.1 |  |  | −0.84 |  |  |  | 
CCCCNC1=CC(=O)C(=O)c2ccccc21 [Compound 4e, 4-(butan-1-amine)-1,2-naphthoquinone] |  | -0.71 |  | 150 |  |  | −0.78 | 62.4 ± 1.5 | 26.8 ± 1.1 | -0.78 |  |  |  |  |  | 
COc1cccc2c1C(=O)c1c(O)c3c(c(O)c1C2=O)C[C@@](O)(C(=O)CO)C[C@@H]3O[C@H]1C[C@H](N)[C@H](O)[C@H](C)O1 [Doxorubicin, doxorubicin, reference compound] |  |  |  |  |  |  |  |  | 1.42 ± 1 |  |  |  |  |  |  | 1.4
COc1ccc(NC2=CC(=O)C(=O)c3ccccc32)cc1 [Compound 4c] |  |  |  |  |  |  | −0.67 | 45.8 ± 2.9 | 6.5 ± 1.4 |  |  |  |  |  |  | 
CCN(CC)C1=CC(=O)C(=O)c2ccccc21 [Compound 4f, 4-(diethylamine)-1,2-naphthoquinone] | 0.9 | -0.63 |  | 120 |  |  | −0.52 | 54.7 ± 2 | 23.1 ± 1.7 |  |  | −0.69 | 120 | −0.63 |  | 
